Results published in patent publication US7879898B1, “Hepatocyte growth factor pathway activators in chronic obstructive pulmonary disease” (Angion Biomedica Corp., priority 2006, dated 2011).

Columns and labels:
[1] = tested on: bovine pulmonary endothelial cells (bPAEC); test: CytoSelect 24-well cell migration assay of bPAEC; type: cell-based; conditions: 24 h; multiple concentrations; FIG. 2
Description: Another important pulmotrophic activity of HGF is to stimulate migration of pulmonary endothelial cells. Again, bPAEC cells were used to test if test compound, like HGF, can stimulate migration of the cells. The CytoSelect 24-well cell migration assay (Cell Biolabs, Inc.) was used to measure the migration of bPAEC cells according to the kit manual.
CytoSelect 24-well cell migration assay kit (Cell Biolabs, Inc.) was used. Briefly, ˜300,000 cells/chamber were seeded in serum-free medium and put into a larger well containing medium with no-serum (C), serum, HGF, compound at multiple concentrations (see above), respectively, and incubated for 24 h. The medium was then aspirated from the chamber and then carefully and completely, the cells on the inner surface of the membrane were removed with cotton and the membrane washed twice. The migrated cells were stained and quantified by measuring OD at 560 nm. The mean values from bouble wells for each compound are shown.

[2] = tested on: bovine pulmonary endothelial cells (bPAEC); test: 3H-thymidine incorporation cell proliferation assay in bPAEC combined with c-Met siRNA; type: cell-based; conditions: serial dilutions of 5-((E)-2-thiophen-2-yl-vinyl)-1H-pyrazole or HGF; with c-Met siRNA knockdown; FIG. 1B-C
Description: Compounds promote proliferation of pulmonary endothelial cells specifically through c-Met. Proliferation of pulmonary endothelial cells is one of the important pulmotrophic activities of HGF. […] First, a c-Met siRNA was used with a lipo-transfecting reagent to knock down the c-Met mRNA level in bPAEC cells, and real time RT-PCR conducted to measure the effect. The c-Met siRNA can knock down ˜90% of c-Met mRNA at a c-Met siRNA concentration as low as 50 nM. Next, the siRNA knockdown condition established from the first step was used to decrease >=90% of c-Met mRNA in bPAEC by using 100 nM of the c-Met siRNA pool, and subsequently ^3H-thymidine incorporation assay was performed in the bPAEC cells.
Shown in FIG. 1B-C, ˜5,000/well bPAEC were plated in 96 well plates. The steps as described above were continued until 24 h after adding the mixture of siRNAs and lipofectamine. Then the medium was changed with the fresh mixture of siRNAs and lipofectamine containing serial dilutions of the compound 5-((E)-2-thiophen-2-yl-vinyl)-1H-pyrazole or HGF, incubated another 24 h, 100 ul of ^3H-thymidine(1uCi/ml) was added and incubation continued overnight. Then, 100 ul/well Trypsin/EDTA was added, and ^3H-thymidine incorporation analysis was conducted using an auto-harvester and Topcount NXT v2.12 instrument.

HGF: hepatocyte growth factor (HGF; also known as scatter factor), acts through its receptor c-Met
migration of bPAEC cells (OD at 560 nM) [1]: stimulates bPAEC cells migration
proliferation of bPAEC cells (3H-thymidine incorporation) [2]: promote proliferation of bPAEC cells specifically through HGF receptor c-Met
